In assay [1] the target is KDR (phospho-KDR, VEGF165-stimulated HUVEC cells) (Homo sapiens (Human), UniProt P35968). In words: KDR autophosphorylation ELISA in HUVEC cells (Example G). As to conditions: cellular activity; KDR autophosphorylation ELISA in HUVEC cells. It is filed as cell-based. In a few lines:
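First, endothelial cells were cultured a day, then kept without serum for another day. Next came 1 h with serially diluted compound, a brief 5 min VEGF165 stimulus (100 ng/mL), rapid lysis, and ELISA detection of receptor phosphorylation relative to stimulated and non-stimulated controls.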

Assay [2] addresses Human MER (residues 528-999) (Homo sapiens (Human), UniProt Q12866). In words: Human Mer kinase assay, HTRF KinEase (Example C-2). It counts as biochemical. As to conditions: protocol of Example C-2 (other compounds). In a few lines:
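IC50 values from 10 concentrations via 4-parameter logistic fit of […], with DMSO as 100% and 1 μM reference compound as 0% activity. Reaction: MER kinase domain 528-999, 1 ng/well, 40 μM ATP (Km), biotin peptide, 5 mM MgCl2, 1 mM DTT, 3% DMSO, room temperature 60 min; HTRF streptavidin-XL665/Eu-antibody detection.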
On the technique in general: TR-FRET usually uses a lanthanide donor and a delayed reading to cut background.

Chain of Human MER (residues 528-999) (Q12866 528-999): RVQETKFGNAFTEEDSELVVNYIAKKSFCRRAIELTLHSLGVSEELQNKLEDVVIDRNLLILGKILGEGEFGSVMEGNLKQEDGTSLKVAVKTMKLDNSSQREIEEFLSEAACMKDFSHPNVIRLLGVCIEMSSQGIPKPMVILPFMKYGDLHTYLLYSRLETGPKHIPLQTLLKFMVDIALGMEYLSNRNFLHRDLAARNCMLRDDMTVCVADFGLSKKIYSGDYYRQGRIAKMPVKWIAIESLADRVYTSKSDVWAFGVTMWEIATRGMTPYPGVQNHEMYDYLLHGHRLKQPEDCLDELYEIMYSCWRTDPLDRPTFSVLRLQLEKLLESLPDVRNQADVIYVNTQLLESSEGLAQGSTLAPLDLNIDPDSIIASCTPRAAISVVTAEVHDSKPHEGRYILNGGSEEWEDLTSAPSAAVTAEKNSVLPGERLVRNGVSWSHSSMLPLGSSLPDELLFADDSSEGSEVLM
Chain of KDR (phospho-KDR, VEGF165-stimulated HUVEC cells) (P35968 20-1356): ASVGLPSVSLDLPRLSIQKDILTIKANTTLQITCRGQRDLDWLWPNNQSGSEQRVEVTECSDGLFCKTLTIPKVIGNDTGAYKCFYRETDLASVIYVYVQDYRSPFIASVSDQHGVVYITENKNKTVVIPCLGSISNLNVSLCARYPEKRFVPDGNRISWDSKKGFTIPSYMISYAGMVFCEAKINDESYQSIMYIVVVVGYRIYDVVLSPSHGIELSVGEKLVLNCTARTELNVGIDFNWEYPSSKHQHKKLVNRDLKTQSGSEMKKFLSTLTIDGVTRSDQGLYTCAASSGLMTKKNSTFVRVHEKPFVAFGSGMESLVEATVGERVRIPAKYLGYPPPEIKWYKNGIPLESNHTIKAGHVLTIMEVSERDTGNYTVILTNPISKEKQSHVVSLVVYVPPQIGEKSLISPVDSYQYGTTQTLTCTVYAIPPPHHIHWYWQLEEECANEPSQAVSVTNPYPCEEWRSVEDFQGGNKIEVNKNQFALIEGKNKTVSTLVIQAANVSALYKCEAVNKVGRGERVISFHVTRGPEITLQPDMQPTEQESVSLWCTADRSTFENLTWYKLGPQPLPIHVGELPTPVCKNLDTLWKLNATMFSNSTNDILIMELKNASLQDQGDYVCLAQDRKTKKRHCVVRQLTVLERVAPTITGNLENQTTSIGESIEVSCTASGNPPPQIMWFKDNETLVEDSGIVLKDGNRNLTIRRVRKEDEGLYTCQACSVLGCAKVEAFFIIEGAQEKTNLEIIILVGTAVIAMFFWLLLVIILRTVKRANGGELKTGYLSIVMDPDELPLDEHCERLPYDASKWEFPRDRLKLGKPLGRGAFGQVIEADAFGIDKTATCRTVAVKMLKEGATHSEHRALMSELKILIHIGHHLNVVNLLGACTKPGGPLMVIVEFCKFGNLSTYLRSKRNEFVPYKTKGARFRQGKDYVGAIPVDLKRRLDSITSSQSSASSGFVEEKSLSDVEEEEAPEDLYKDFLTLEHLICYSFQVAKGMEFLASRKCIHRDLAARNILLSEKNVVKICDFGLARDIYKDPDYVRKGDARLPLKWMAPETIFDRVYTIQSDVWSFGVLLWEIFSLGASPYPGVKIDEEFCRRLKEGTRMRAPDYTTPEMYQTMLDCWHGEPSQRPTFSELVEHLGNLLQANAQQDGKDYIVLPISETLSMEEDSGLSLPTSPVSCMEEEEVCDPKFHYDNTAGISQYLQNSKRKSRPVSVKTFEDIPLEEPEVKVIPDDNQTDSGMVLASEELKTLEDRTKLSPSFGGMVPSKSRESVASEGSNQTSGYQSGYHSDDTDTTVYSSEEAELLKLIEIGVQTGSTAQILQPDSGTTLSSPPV

Turning to `COc1cnc2c(Oc3ccc(NC(=O)c4c(C)ncc(-c5ccc(F)cc5)c4O)cc3F)ccnc2c1` [Compound 80, N-[3-Fluoro-4-[(7-methoxy-1,5-naphthyridin-4-yl)oxy]phenyl]-5-(4-fluorophenyl)-4-hydroxy-2-methylpyridine-3-carboxamide], the IC50 in assay [1] and in assay [2] was below 100 nM in each case.

Regarding `COc1cc2nccc(Oc3ccc(NC(=O)c4c(C)n(C)cc(-c5ccc(F)cc5)c4=O)cc3F)c2nc1OC` [Compound 81, N-[4-[(6,7-Dimethoxy-1,5-naphthyridin-4-yl)oxy]-3-fluorophenyl]-5-(4-fluorophenyl)-1,2-dimethyl-4-oxopyridine-3-carboxamide], the IC50 in assay [1] and in assay [2] was below 100 nM each time.

Take `CCn1cc(-c2ccc(F)cc2)c(=O)c(C(=O)Nc2ccc(Oc3ccnc4cc(OC)c(OC)nc34)c(F)c2)c1C` [Compound 82, N-[4-[(6,7-Dimethoxy-1,5-naphthyridin-4-yl)oxy]-3-fluorophenyl]-1-ethyl-5-(4-fluorophenyl)-2-methyl-4-oxopyridine-3-carboxamide]: the results for the IC50 in assay [1] and in assay [2] were 100 to 300 nM and below 100 nM, respectively.

Regarding `COc1cnc2c(Oc3ccc(NC(=O)c4ccc(C)n(-c5ccc(F)cc5)c4=O)cc3F)ccnc2c1` [Compound 83, N-[3-Fluoro-4-[(7-methoxy-1,5-naphthyridin-4-yl)oxy]phenyl]-1-(4-fluorophenyl)-6-methyl-2-oxopyridine-3-carboxamide], the IC50 in assay [1] and in assay [2] was below 100 nM in each case.

In the case of `COc1ccc2nccc(Oc3ccc(NC(=O)c4ccc(C)n(-c5ccc(F)cc5)c4=O)cc3F)c2n1` [Compound 84, N-[3-Fluoro-4-[(6-methoxy-1,5-naphthyridin-4-yl)oxy]phenyl]-1-(4-fluorophenyl)-6-methyl-2-oxopyridine-3-carboxamide], the IC50 in assay [1] and in assay [2] was below 100 nM in each case.

As to `COc1ccc2nccc(Oc3ccc(NC(=O)c4ccc(C)n(-c5ccc(F)cc5C)c4=O)cc3F)c2n1` [Compound 85, N-[3-Fluoro-4-[(6-methoxy-1,5-naphthyridin-4-yl)oxy]phenyl]-1-(4-fluoro-2-methylphenyl)-6-methyl-2-oxopyridine-3-carboxamide], the IC50 in assay [1] and in assay [2] was below 100 nM in each case.

On to `COc1cc2nccc(Oc3ccc(NC(=O)c4cc(C(C)=O)c(C)n(-c5ccc(F)cc5)c4=O)cc3F)c2nc1OC` [Compound 86, 5-Acetyl-N-[4-[(6,7-dimethoxy-1,5-naphthyridin-4-yl)oxy]-3-fluorophenyl]-1-(4-fluorophenyl)-6-methyl-2-oxopyridine-3-carboxamide], for which the IC50 (in general, the concentration that inhibits the measured activity by half) in assay [1] was 100 to 300 nM; in assay [2], below 100 nM.

For `COc1cc2nccc(Oc3ccc(NC(=O)c4cc(C#N)c(C)n(-c5ccc(F)cc5)c4=O)cc3F)c2nc1OC` [Compound 87, 5-Cyano-N-[4-[(6,7-dimethoxy-1,5-naphthyridin-4-yl)oxy]-3-fluorophenyl]-1-(4-fluorophenyl)-6-methyl-2-oxopyridine-3-carboxamide], the figures for the IC50 in assay [1] and in assay [2] were above 300 nM and below 100 nM, respectively.

In the case of `COc1cc2nccc(Oc3ccc(NC(=O)c4n[nH]c(C)c(-c5ccc(F)cc5)c4=O)cc3F)c2nc1OC` [Compound 88, N-[4-[(6,7-Dimethoxy-1,5-naphthyridin-4-yl)oxy]-3-fluorophenyl]-5-(4-fluorophenyl)-6-methyl-4-oxo-1H-pyridazine-3-carboxamide], the IC50 in assay [1] and in assay [2] was below 100 nM each time.

As to `COc1ccc2nccc(Oc3ccc(NC(=O)c4n[nH]c(C)c(-c5ccc(F)cc5)c4=O)cc3F)c2n1` [Compound 89, N-[3-Fluoro-4-[(6-methoxy-1,5-naphthyridin-4-yl)oxy]phenyl]-5-(4-fluorophenyl)-6-methyl-4-oxo-1H-pyridazine-3-carboxamide], the IC50 in assay [1] and in assay [2] was below 100 nM in each case.

Regarding `COc1cc2nccc(Oc3ccc(NC(=O)c4n[nH]c(C)c(-c5ccc(F)cc5C)c4=O)cc3F)c2nc1OC` [Compound 90, N-[4-[(6,7-Dimethoxy-1,5-naphthyridin-4-yl)oxy]-3-fluorophenyl]-5-(4-fluoro-2-methylphenyl)-6-methyl-4-oxo-1H-pyridazine-3-carboxamide], the IC50 in assay [1] and in assay [2] was below 100 nM throughout.

Take `COc1cc2nccc(Oc3ccc(NC(=O)c4nn(C)c(C)c(-c5ccc(F)cc5)c4=O)cc3)c2nc1OC` [Compound 91, N-[4-[(6,7-Dimethoxy-1,5-naphthyridin-4-yl)oxy]phenyl]-5-(4-fluorophenyl)-1,6-dimethyl-4-oxopyridazine-3-carboxamide]: the IC50 is 100 to 300 nM in assay [1] and below 100 nM in assay [2].

For the compound `COc1cc2nccc(Oc3ccc(NC(=O)c4nn(C)c(C)c(-c5ccc(F)cc5)c4=O)cc3F)c2nc1OC` [Compound 92, N-[4-[(6,7-Dimethoxy-1,5-naphthyridin-4-yl)oxy]-3-fluorophenyl]-5-(4-fluorophenyl)-1,6-dimethyl-4-oxopyridazine-3-carboxamide], the concentration for half-maximal inhibition (IC50) in assay [1] and in assay [2] was below 100 nM in each case.

Consider `COc1cc2nccc(Oc3ccc(NC(=O)c4ncc(C)n(-c5ccc(F)cc5)c4=O)cc3F)c2nc1OC` [Compound 93, N-[4-[(6,7-Dimethoxy-1,5-naphthyridin-4-yl)oxy]-3-fluorophenyl]-4-(4-fluorophenyl)-5-methyl-3-oxopyrazine-2-carboxamide], for which the IC50 in assay [1] and in assay [2] was below 100 nM throughout.

Turning to `COc1cnc2c(Oc3ccc(NC(=O)c4ncc(C)n(-c5ccc(F)cc5)c4=O)cc3F)ccnc2c1` [Compound 94, N-[3-Fluoro-4-[(7-methoxy-1,5-naphthyridin-4-yl)oxy]phenyl]-4-(4-fluorophenyl)-5-methyl-3-oxopyrazine-2-carboxamide], the results for the IC50 in assay [1] and in assay [2] were above 300 nM and below 100 nM, respectively.

As to `COc1cc2nccc(Oc3ccc(NC(=O)c4nc(C)c(C)n(-c5ccc(F)cc5)c4=O)cc3F)c2nc1OC` [Compound 95, N-[4-[(6,7-Dimethoxy-1,5-naphthyridin-4-yl)oxy]-3-fluorophenyl]-4-(4-fluorophenyl)-5,6-dimethyl-3-oxopyrazine-2-carboxamide], the IC50 in assay [1] was above 300 nM; in assay [2], below 100 nM.

As for `COc1cc2nccc(Oc3ccc(NC(=O)c4ncnc(-c5ccc(F)cc5)c4O)cc3F)c2nc1OC` [Compound 96, N-[4-[(6,7-Dimethoxy-1,5-naphthyridin-4-yl)oxy]-3-fluorophenyl]-6-(4-fluorophenyl)-5-hydroxypyrimidine-4-carboxamide], the IC50 in assay [1] and in assay [2] was below 100 nM in each case.

With `COc1cc2nccc(Oc3ncc(NC(=O)c4cn(-c5cnn(C)c5)cc(-c5ccc(F)cc5)c4=O)cc3F)c2cc1OC` [Compound 401, N-[6-(6,7-dimethoxyquinolin-4-yl)oxy-5-fluoropyridin-3-yl]-5-(4-fluorophenyl)-1-(1-methylpyrazol-4-yl)-4-oxopyridine-3-carboxamide], the IC50 in assay [1] is above 300 nM; in assay [2], below 100 nM.

Take `COc1cc2nccc(Oc3ncc(NC(=O)c4cn(-c5ccn(C)n5)cc(-c5ccc(F)cc5)c4=O)cc3F)c2cc1OC` [Compound 402, N-[6-(6,7-dimethoxyquinolin-4-yl)oxy-5-fluoropyridin-3-yl]-5-(4-fluorophenyl)-1-(1-methylpyrazol-3-yl)-4-oxopyridine-3-carboxamide]: the figures for the IC50 in assay [1] and in assay [2] were above 300 nM and below 100 nM, respectively.

(Values after US12371428B2 (Exelixis, Inc., priority 2019, dated 2025).)
